Measurements published in patent US20040091477A1, “Immunosuppresive compositions” (priority 2003, published 2004).
Marks after values point to notes of the source that are not given here.

Assays:
[1] = molecular target: platelet activating factor receptor (PAFR) (Homo sapiens, UniProt P25105); details: cited from earlier work
[2] = Schussler et al. 1995; cited from earlier work
[3] = test system: cAMP-specific phosphodiesterase; details: cited from earlier work
isolated rat hearts [4] = assay: Reperfusion-induced arrhythmias (VF, VT) in isolated hearts of orally treated rats, 30 min global ischemia and 2 hours reperfusion; type: in vivo; details: control 92%
Protocol: (§1) Male Sprague-Dawley rats were used for all studies. Rats were anesthetized with intraperitoneal pentobarbital sodium (60 mg/kg body weight) and then given intravenous heparin (500 IU/kg). After thoracotomy, the heart was excised and placed in ice cold perfusion buffer. Immediately after preparation, the aorta was cannulated, and the heart was perfused according to Langendorf method for a 5-min washout period at a constant perfusion pressure equivalent to 100 cm of water (10 kPa). The perfusion medium consisted of a modified Krebs-Henseleit bicarbonate buffer: 118 mM NaCl, 4.7 mM KCl, 1.7 mM CaCl2, 25 mM NaHCO3, 0.36 mM KH2PO4, 1.2 mM MgSO4, and 10 mM glucose. The left atrium was cannulated and the Langendorff system was switched to the working mode with a left atrial filling pressure of 17 cm of buffer (1.7 kPa) and aortic afterload pressure of 100 cm (10 kPa) of buffer. Aortic flow was measured by a calibrated rotameter, and coronary flow rate was measured by a timed collection of the coronary perfusate that dripped from the heart. After 10 min aerobic perfusion of the heart, the atrial inflow and aortic outflow lines were clamped at a point close to the origin of the aortic cannula. Reperfusion was initiated by unclamping the atrial inflow and aortic outflow lines. […] An epicardial ECG was recorded by a polygraph throughout the experimental period by two silver electrodes attached directly to the heart. ECGs were analyzed to determine the incidence of ventricular fibrillation (VF) and ventricular tachycardia (VT) and whether VF was non-sustained (spontaneously reverting to regular rhythm) or sustained (persisting through the first 3 min of reperfusion). After 3 min of ventricular fibrillation (sustained VF) hearts were defibrillated and myocardial function was recorded. The heart was considered to be in VF if an irregular undulating baseline was apparent on the ECG. […] In each instance, VT spontaneously switched to sinus rhythm or VF, therefore VT was considered non-sustained. The heart was considered to be in sinus rhythm if normal sinus complexes occurring in a regular rhythm were apparent on the ECG. Before ischemia and during reperfusion, heart rate (HR), coronary flow (CF) and aortic flow (AF) rates were registered. Left ventricular developed pressure (LVDP) which was defined as the difference between left ventricular systolic and end-diastolic pressure, and the first derivative of LVDP (+LVdp/dtmax) were also recorded (Experimetria, UK) by the insertion of a catheter into the left ventricle via the left atrium and mitral valve. […] Cardiac function data (HR, CF, AF, LVDP, and LVdp/dtmax), were expressed as the mean±SEM. One-way analysis of variance was first carried out, to test for any differences between the mean values of all groups. If differences were established, the values of the control, drug-free group were compared with those of the drug treated groups by a two-tailed t-test with the Bonferroni correction (Wallenstein et al., 1980, Circ. Res. 47:1-9). An analogue procedure was followed for distribution of discrete variables such as the incidence of VF and VT. An overall chi-square test for a 2×n table was constructed followed by a sequence of 2×2 chi-square tests to compare individual groups. A change of p<0.05 was considered significant.

isolated rat hearts [5] = assay: Cardiac function of isolated working hearts of orally treated rats, 30 min global ischemia followed by reperfusion; type: ex vivo
Protocol: as §1

[6] = cited from earlier work
[7] = FK506 1 mg/kg/day oral 10 days, after 30-min reperfusion
[8] = FK506 1 mg/kg/day oral 10 days, after 60-min reperfusion
[9] = FK506 1 mg/kg/day oral 10 days, after 120-min reperfusion
[10] = FK506 5 mg/kg/day oral 10 days, after 30-min reperfusion
[11] = FK506 5 mg/kg/day oral 10 days, after 60-min reperfusion
[12] = FK506 5 mg/kg/day oral 10 days, after 120-min reperfusion
[13] = FK506 10 mg/kg/day oral 10 days, after 30-min reperfusion
[14] = FK506 10 mg/kg/day oral 10 days, after 60-min reperfusion
[15] = FK506 10 mg/kg/day oral 10 days, after 120-min reperfusion
[16] = FK506 20 mg/kg/day oral 10 days, after 30-min reperfusion
[17] = FK506 20 mg/kg/day oral 10 days, after 60-min reperfusion
[18] = FK506 20 mg/kg/day oral 10 days, after 120-min reperfusion
[19] = FK506 40 mg/kg/day oral 10 days, after 30-min reperfusion
[20] = FK506 40 mg/kg/day oral 10 days, after 60-min reperfusion
[21] = FK506 40 mg/kg/day oral 10 days, after 120-min reperfusion

platelet activating factor receptor (PAFR), sequence (P25105 whole entry, species assumed): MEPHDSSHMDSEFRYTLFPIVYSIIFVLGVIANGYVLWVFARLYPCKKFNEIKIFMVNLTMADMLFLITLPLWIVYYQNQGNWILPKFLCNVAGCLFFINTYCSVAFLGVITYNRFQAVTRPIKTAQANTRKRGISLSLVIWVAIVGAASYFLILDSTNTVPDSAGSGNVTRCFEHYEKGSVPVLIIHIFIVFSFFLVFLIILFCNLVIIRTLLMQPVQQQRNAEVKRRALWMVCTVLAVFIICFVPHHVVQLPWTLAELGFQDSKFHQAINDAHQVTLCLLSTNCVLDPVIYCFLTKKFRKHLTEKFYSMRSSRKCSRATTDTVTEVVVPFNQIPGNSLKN

Ginkgolide J
PAFR antagonist activity (in words) [1]: PAFR antagonist activity

COc1ccc(NC(=S)N2CCc3c(sc4c3C(c3ccccc3Cl)=NCc3nnc(C)n3-4)C2)cc1 [BN 50730]
PAFR antagonistic activity compared to BN52021 ([1]; more potent than BN52021): up to several 10-fold

O=c1cc(-c2ccc(O)c(O)c2)oc2cc(O[C@@H]3O[C@H](CO)[C@@H](O)[C@H](O)[C@H]3O)cc(O)c12 [luteolin-7-glucoside]
cardioprotective effects [2]: 186%

COc1ccc(-c2cc(=O)c3c(O)cc(O)c(-c4cc(-c5cc(=O)c6c(O)cc(OC)cc6o5)ccc4OC)c3o2)cc1 [Sciadopitysin]
cAMP phosphodiesterase inhibitory activity (in words) [3]: almost inactive

ginkgolide C
PAFR antagonist activity (in words) [1]: PAFR antagonist

C[C@@H]1C(=O)O[C@@H]2[C@H]1[C@@]13OC4OC(=O)[C@H](O)C45[C@H](C(C)(C)C)[C@@H](O)C(OC1=O)[C@]53[C@H]2O (some centres unmarked) [Ginkgolide M]
PAFR antagonist activity (in words) [1]: PAFR antagonist activity

C=CC[C@@H]1/C=C(\C)C[C@H](C)C[C@H](OC)[C@H]2O[C@@](O)(C(=O)C(=O)N3CCCC[C@H]3C(=O)O[C@H](/C(C)=C/[C@@H]3CC[C@@H](O)[C@H](OC)C3)[C@H](C)[C@@H](O)CC1=O)[C@H](C)C[C@@H]2OC [FK506, tacrolimus]
incidence of reperfusion-induced total (irreversible plus reversible) VF (isolated rat hearts [4]; FK506 1 mg/kg/day oral 10 days): 92% | incidence of reperfusion-induced total (irreversible plus reversible) VF (isolated rat hearts [4]; FK506 5 mg/kg/day oral 10 days): 83% | incidence of reperfusion-induced total (irreversible plus reversible) VF (isolated rat hearts [4]; FK506 10 mg/kg/day oral 10 days): 67% | incidence of reperfusion-induced total (irreversible plus reversible) VF (isolated rat hearts [4]; FK506 20 mg/kg/day oral 10 days): 33% | incidence of reperfusion-induced total (irreversible plus reversible) VF (isolated rat hearts [4]; FK506 40 mg/kg/day oral 10 days): 25% | +dP/dtmax (isolated rat hearts [5]; [7]): 422 ± 28 kPa/s | AF (aortic flow) (isolated rat hearts [5]; [7]): 10.6 ± 0.4 mL/min | CF (coronary flow) (isolated rat hearts [5]; [7]): 18.2 ± 1.0 mL/min | HR (heart rate) (isolated rat hearts [5]; [7]): 315 ± 9 beats/min | LVDP (left ventricular developed pressure) (isolated rat hearts [5]; [7]): 10.7 ± 0.6 kPa | +dP/dtmax (isolated rat hearts [5]; [8]): 447 ± 26 kPa/s | CF (coronary flow) (isolated rat hearts [5]; [8]): 16.9 ± 0.9 mL/min | HR (heart rate) (isolated rat hearts [5]; [8]): 306 ± 8 beats/min | LVDP (left ventricular developed pressure) (isolated rat hearts [5]; [8]): 11.9 ± 0.5 kPa | AF (aortic flow) (isolated rat hearts [5]; FK506 1 mg/kg/day oral 10 days, after 60-min reperfusion, 1 mg/kg/day): 10.9 ± 1.8 mL/min | AF (aortic flow) (isolated rat hearts [5]; FK506 1 mg/kg/day oral 10 days, after 60-min reperfusion, listed as FK 506, 1 mg/kg/day): 10.9 ± 0.6 mL/min | +dP/dtmax (isolated rat hearts [5]; [9]): 432 ± 17 kPa/s | AF (aortic flow) (isolated rat hearts [5]; [9]): 10.1 ± 0.6 mL/min | CF (coronary flow) (isolated rat hearts [5]; [9]): 17.5 ± 0.7 mL/min | HR (heart rate) (isolated rat hearts [5]; [9]): 302 ± 9 beats/min | LVDP (left ventricular developed pressure) (isolated rat hearts [5]; [9]): 11.2 ± 0.3 kPa | +dP/dtmax (isolated rat hearts [5]; [10]): 430 ± 34 kPa/s | AF (aortic flow) (isolated rat hearts [5]; [10]): 12.0 ± 0.9 mL/min | CF (coronary flow) (isolated rat hearts [5]; [10]): 18.0 ± 1.1 mL/min | HR (heart rate) (isolated rat hearts [5]; [10]): 298 ± 7 beats/min | LVDP (left ventricular developed pressure) (isolated rat hearts [5]; [10]): 11.0 ± 0.4 kPa | +dP/dtmax (isolated rat hearts [5]; [11]): 463 ± 23 kPa/s | AF (aortic flow) (isolated rat hearts [5]; [11]): 13.3 ± 1.0 mL/min | CF (coronary flow) (isolated rat hearts [5]; [11]): 18.4 ± 0.7 mL/min | HR (heart rate) (isolated rat hearts [5]; [11]): 282 ± 7 beats/min | LVDP (left ventricular developed pressure) (isolated rat hearts [5]; [11]): 12.0 ± 0.7 kPa | +dP/dtmax (isolated rat hearts [5]; [12]): 451 ± 32 kPa/s | AF (aortic flow) (isolated rat hearts [5]; [12]): 11.2 ± 0.8 mL/min | CF (coronary flow) (isolated rat hearts [5]; [12]): 18.1 ± 0.8 mL/min | HR (heart rate) (isolated rat hearts [5]; [12]): 279 ± 8 beats/min | LVDP (left ventricular developed pressure) (isolated rat hearts [5]; [12]): 11.5 ± 0.4 kPa | +dP/dtmax (isolated rat hearts [5]; [13]): 478 ± 44^a kPa/s | AF (aortic flow) (isolated rat hearts [5]; [13]): 12.0 ± 1.2 mL/min | CF (coronary flow) (isolated rat hearts [5]; [13]): 20.0 ± 1.4 mL/min | HR (heart rate) (isolated rat hearts [5]; [13]): 308 ± 8 beats/min | LVDP (left ventricular developed pressure) (isolated rat hearts [5]; [13]): 11.5 ± 0.5 kPa | +dP/dtmax (isolated rat hearts [5]; [14]): 472 ± 32 kPa/s | AF (aortic flow) (isolated rat hearts [5]; [14]): 13.3 ± 1.2 mL/min | CF (coronary flow) (isolated rat hearts [5]; [14]): 19.6 ± 1.2 mL/min | HR (heart rate) (isolated rat hearts [5]; [14]): 310 ± 9 beats/min | LVDP (left ventricular developed pressure) (isolated rat hearts [5]; [14]): 12.3 ± 0.7 kPa | +dP/dtmax (isolated rat hearts [5]; [15]): 463 ± 29 kPa/s | AF (aortic flow) (isolated rat hearts [5]; [15]): 11.4 ± 0.7 mL/min | CF (coronary flow) (isolated rat hearts [5]; [15]): 18.8 ± 0.7 mL/min | HR (heart rate) (isolated rat hearts [5]; [15]): 307 ± 7 beats/min | LVDP (left ventricular developed pressure) (isolated rat hearts [5]; [15]): 11.7 ± 0.6 kPa | +dP/dtmax (isolated rat hearts [5]; [16]): 536 ± 28^a kPa/s | AF (aortic flow) (isolated rat hearts [5]; [16]): 17.4 ± 0.8^a ml/min | CF (coronary flow) (isolated rat hearts [5]; [16]): 23.1 ± 1.1^a ml/min | HR (heart rate) (isolated rat hearts [5]; [16]): 298 ± 9 beats/min | LVDP (left ventricular developed pressure) (isolated rat hearts [5]; [16]): 13.5 ± 0.6^a kPa | +dP/dtmax (isolated rat hearts [5]; [17]): 544 ± 31^a kPa/s | AF (aortic flow) (isolated rat hearts [5]; [17]): 19.8 ± 1.5^a ml/min | CF (coronary flow) (isolated rat hearts [5]; [17]): 22.0 ± 1.1^a ml/min | HR (heart rate) (isolated rat hearts [5]; [17]): 297 ± 8 beats/min | LVDP (left ventricular developed pressure) (isolated rat hearts [5]; [17]): 14.1 ± 0.6^a kPa | +dP/dtmax (isolated rat hearts [5]; [18]): 519 ± 26^a kPa/s | AF (aortic flow) (isolated rat hearts [5]; [18]): 17.3 ± 1.1^a ml/min | CF (coronary flow) (isolated rat hearts [5]; [18]): 21.2 ± 1.1^a ml/min | HR (heart rate) (isolated rat hearts [5]; [18]): 295 ± 6 beats/min | LVDP (left ventricular developed pressure) (isolated rat hearts [5]; [18]): 13.2 ± 0.5^a kPa | +dP/dtmax (isolated rat hearts [5]; [19]): 557 ± 31^a kPa/s | AF (aortic flow) (isolated rat hearts [5]; [19]): 20.6 ± 1.3^a ml/min | CF (coronary flow) (isolated rat hearts [5]; [19]): 24.7 ± 1.5^a ml/min | HR (heart rate) (isolated rat hearts [5]; [19]): 291 ± 7 beats/min | LVDP (left ventricular developed pressure) (isolated rat hearts [5]; [19]): 14.1 ± 0.6^a kPa | +dP/dtmax (isolated rat hearts [5]; [20]): 594 ± 26^a kPa/s | AF (aortic flow) (isolated rat hearts [5]; [20]): 22.9 ± 2.1^a ml/min | CF (coronary flow) (isolated rat hearts [5]; [20]): 23.5 ± 0.8^a ml/min | HR (heart rate) (isolated rat hearts [5]; [20]): 286 ± 9 beats/min | LVDP (left ventricular developed pressure) (isolated rat hearts [5]; [20]): 15.3 ± 0.6^a kPa | +dP/dtmax (isolated rat hearts [5]; [21]): 568 ± 33^a kPa/s | AF (aortic flow) (isolated rat hearts [5]; [21]): 20.0 ± 1.8^a ml/min | CF (coronary flow) (isolated rat hearts [5]; [21]): 22.8 ± 1.8^a ml/min | HR (heart rate) (isolated rat hearts [5]; [21]): 289 ± 8 beats/min | LVDP (left ventricular developed pressure) (isolated rat hearts [5]; [21]): 14.6 ± 0.6^a kPa | change of preischemic HR, CF, AF, LVDP and +LVdP/dtmax (in words) (isolated rat hearts [5]; FK506 treatment, before ischemia, versus drug-free group): No significant changes | plasma concentrations ([6]; continuous intravenous infusion, severe acute GVHD): 25 to 35 ng/mL | blood levels ([6]; low doses (0.1 mg/kg or less)): ~10 ng/mL | fraction of treated patients with greater than 1 year graft survival ([6]; low doses (0.1 mg/kg or less)): > 70%

C[C@@H]1C(=O)O[C@H]2C[C@@]34[C@H]5C[C@@H](C(C)(C)C)[C@]36[C@@H](OC(=O)[C@@H]6O)O[C@@]4(C(=O)O5)[C@]21O [Ginkgolide A]
PAFR antagonist activity (in words) [1]: PAFR antagonist
